Measurements published in US20100311756A1, “METHODS FOR DELAYING THE PROGRESSION OF AT LEAST ONE OF CARDIAC HYPERTROPHY, CARDIAC REMODELING OR LEFT VENTRICULAR FUNCTION OR THE ONSET OF HEART FAILURE IN SUBJECTS IN NEED OF TREATMENT THEREOF” (TAKEDA PHARMACEUTICALS NORTH AMERICA, INC., priority 2009, published 2010).
Marks after values point to notes of the source that are not given here.

Legend:
[1] = tested on: enzymes involved in purine and pyrimidine metabolism; settings: Takano et al., Life Sciences 2005; cited from earlier work
[2] = Schumacher, Expert Opin. Invest. Drugs 2005; cited from earlier work
[3] = tested on: mice subjected to TAC or sham surgery; assay: TAC or sham surgery in mice, Protocol 2: febuxostat or allopurinol for three weeks beginning seven days after TAC; assay type: in vivo; settings: for Anterior wall thickness at end-diastole / Anterior wall thickness at end-systole / LV ejection fraction / LV end-diastolic diameter / LV end-systolic diameter / LV fractional shortening / Lung weight / Lung/body weight / Posterior wall thickness at end-diastole / Posterior wall thickness at end-systole / Ventricle weight / Ventricle/body weight: drinking water (FBS 0.05 mg/ml, allopurinol 0.15 mg/ml) three weeks from day 7; for Survival rate: over the three-week treatment period; for TAC-induced ventricular fibrosis: histological staining
Source text: • Mice. Male C57/BL6 mice at 8-9 weeks of age were purchased from Jackson Laboratories (Bar Harbor, Me.) for use in this study. Mice were housed in an air-conditioned room with a 12-hour:12-hour light-dark cycle, received standard mouse chow, and drank tap water. This study was approved by the Institutional Animal Care and Use Committee of the University of Minnesota. • Experimental Protocol 1. This protocol was designed to determine whether febuxostat (2-[3-cyano-4-(2-methylpropoxy)phenyl]-4-methylthiazole-5-carboxylic acid) treatment, beginning immediately after the onset of acute pressure overload, could protect against transverse aortic constriction (TAC)-induced left ventricular (LV) hypertrophy, dysfunction and mortality. Three treatment groups were included (See Table 1, below): sham-operated mice (n=20), TAC mice treated with vehicle (0.5% methylcellulose) (n=30), and TAC mice treated with febuxostat (suspension in 0.5% methylcellulose) (n=30). To generate LV hypertrophy in a short time period with a significant incidence of cardiac mortality, TAC was created by ligating the transverse aorta against a 27 G needle to create severe LV pressure overload. Since mice tend to take in less water and food during the first 1-3 days after the TAC procedure, febuxostat (5 mg/kg/day in 250 μl vehicle) or vehicle (250 μl) was administered daily by oral gavage for a total of 8 days, with the first dose administered on the day of the surgery after the animal awoke from anesthesia (˜60 min after the TAC procedure). On the eighth day, LV function was assessed by echocardiography approximately 1 hour after the last febuxostat or vehicle dose. Approximately 3 hours after echocardiographic evaluation (4 hours after the last febuxostat or vehicle dose), the mice were weighed and blood samples collected. The animals were euthanized and the heart and lungs excised; the right and left atria were trimmed away, and the ventricles and lungs were weighed. Tissue from the left ventricle was used for histological evaluation and Western blots. • Experimental Protocol 2. This protocol was designed to determine whether administration of febuxostat (FBS) or allopurinol (AL) beginning after the onset of cardiac hypertrophy, LV dysfunction and heart failure could exert a protective effect. For this protocol, mice subjected to TAC (using a 26 gauge (G) needle to generate moderate TAC) or sham surgery were divided into six experimental groups as described in Table 1, below. Beginning seven days after TAC, animals were treated with vehicle (0.01 mg/ml NaCl, equivalent salt content as in the FBS drinking water), FBS (0.05 mg/ml) or AL (0.15 mg/ml) in drinking water for three weeks. Following three weeks of treatment, ventricular function was assessed by echocardiography. Blood samples and cardiac tissue were collected during 2-3 hours after the echocardiographic evaluation as described previously in Protocol 1.
• Minimally Invasive TAC Procedure. TAC was performed using the minimally invasive suprasternal approach described by Hu et al. (See, Hu et al., Am. J. Physiol. Heart Circ. Physiol., 3:H1261-9 (2003)). Mice were anesthetized with a mixture of 80 mg/kg ketamine and 30 mg/kg xylazine intraperitoneally. A horizontal incision was made at the level of the suprasternal notch to allow direct visualization of the transverse aorta without entering the pleural space. With the aid of a dissecting microscope, aortic constriction was performed by ligating the aorta between the right innominate artery and the left carotid artery over a 27 G) needle using 5-0 silk suture. The needle was immediately removed after ligation, leaving the aortic constriction in place. The incision was closed and the animals were allowed to recover. Analgesia was provided before the mice awoke from anesthesia. Sham surgery utilized the same procedure but without aortic ligation. • Echocardiography.

[4] = sham-operated mice, three-week treatment
[5] = sham-operated mice, three-week treatment, versus vehicle

Row | SMILES | Cross-inhibition on other purine and pyrimidine metabolism enzymes such as purine nucleoside phosphorylase and orotidine-5′-monophosphate decarboxylase [1] | Route of elimination [2] | Anterior wall thickness at end-diastole ([3]; TAC mice) | Anterior wall thickness at end-systole ([3]; TAC mice) | LV ejection fraction ([3]; TAC mice) | Lung weight ([3]; TAC mice) [mg] | Lung/body weight ([3]; TAC mice) [mg/g] | Posterior wall thickness at end-diastole ([3]; TAC mice) | Posterior wall thickness at end-systole ([3]; TAC mice) | Ventricle weight ([3]; TAC mice) | Ventricle/body weight ([3]; TAC mice) | Survival rate ([3]; TAC mice) [%] | Plasma uric acid ([3]; TAC mice, three-week treatment) | TAC-induced ventricular fibrosis ([3]; TAC mice, three-week treatment) | Anterior wall thickness at end-diastole ([3]; sham mice) [mm] | Anterior wall thickness at end-systole ([3]; sham mice) [mm] | LV ejection fraction ([3]; sham mice) | LV fractional shortening ([3]; sham mice) | Lung/body weight ([3]; sham mice) [mg/g] | Posterior wall thickness at end-diastole ([3]; sham mice) [mm] | further results
1 | Oc1ncnc2[nH]ncc12 [allopurinol] | cross-inhibition | mainly cleared by the kidneys | 0.87 ± 0.02^a mm | 1.20 ± 0.03^a mm | 60.2 ± 2.2^a % | 166 ± 16 | 6.98 ± 0.94 | 0.88 ± 0.02^a mm | 1.20 ± 0.03^a mm | 153 ± 6^a mg | 6.27 ± 0.36^a mg/g | 76 | decreased | not affected | 0.74 ± 0.01 | 1.11 ± 0.04 | 77.7 ± 2.1% | 40.1 ± 2.0% | 5.40 ± 0.14 | 0.74 ± 0.01 | LV end-diastolic diameter ([3]; TAC mice): 4.21 ± 0.08^a mm; LV end-systolic diameter ([3]; TAC mice): 3.09 ± 0.10^a mm; LV fractional shortening ([3]; TAC mice): 26.8 ± 1.4^a %; Lung/body weight ([3]; TAC mice, listed as AL): no significant effect; Ventricle/body weight ([3]; TAC mice, listed as AL): no significant effect; LV function and dimensions (echocardiography) ([3]; TAC mice, three-week treatment, versus vehicle-treated TAC mice): no effect; LV end-diastolic diameter ([3]; sham mice): 3.71 ± 0.06 mm; LV end-systolic diameter ([3]; sham mice): 2.22 ± 0.07 mm; Lung weight ([3]; sham mice): 131 ± 3 mg; Posterior wall thickness at end-systole ([3]; sham mice): 1.11 ± 0.03 mm; Ventricle weight ([3]; sham mice): 100 ± 3 mg; Ventricle/body weight ([3]; sham mice): 4.13 ± 0.12 mg/g; Lung weight ([3]; sham mice, listed as AL): no significant effects; Lung/body weight ([3]; sham mice, listed as AL): no significant effects; Ventricle weight ([3]; sham mice, listed as AL): no significant effects; Ventricle/body weight ([3]; sham mice, listed as AL): no significant effects; LV function and dimensions (any of the parameters evaluated by echocardiography) [3, 4]: no effect; Plasma uric acid [3, 4]: significantly decreased
2 | Cc1nc(-c2ccc(OCC(C)C)c(C#N)c2)sc1C(=O)O [febuxostat, 2-[3-cyano-4-(2-methylpropoxy)phenyl]-4-methylthiazole-5-carboxylic acid] | avoids the cross-inhibition | hepatic metabolism | 0.85 ± 0.02^a mm | 1.19 ± 0.02^a mm | 63.9 ± 1.9^a % | 170 ± 17 | 6.59 ± 0.64 | 0.84 ± 0.02^a mm | 1.18 ± 0.02^a mm | 158 ± 6^a mg | 6.11 ± 0.21^a mg/g | 96 | decreased | not affected | 0.72 ± 0.02 | 1.18 ± 0.04 | 85.5 ± 1.6^a % | 48.3 ± 2.2^a % | 5.42 ± 0.11 | 0.72 ± 0.02 | LV end-diastolic wall thickness ([3]; TAC mice, three-week treatment): unchanged; TAC-induced cardiac myocyte hypertrophy ([3]; TAC mice, three-week treatment): no effect; Improvement (increase) of LV ejection fraction ([3]; TAC mice, three-week treatment, versus vehicle): ~10%; Posterior wall thickness at end-systole ([3]; sham mice): 1.18 ± 0.04^a mm; Ventricle/body weight ([3]; sham mice): 3.94 ± 0.07 mg/g; End-diastolic wall thickness [3, 4]: did not change; Plasma uric acid [3, 4]: significantly decreased; Increase in LV ejection fraction [3, 5]: ~9%; Increase in LV fractional shortening [3, 5]: ~15%
